PMC7801313, “Effect of lurbinectedin on the QTc interval in patients with advanced solid tumors: an exposure–response analysis” (Cancer Chemotherapy and Pharmacology, 2020)
“And” between values parts separate entries of the source, which are not always exact repeats. Identical values can stand only once.

Tested on: patients with advanced solid tumors
Assay: QT evaluation study, by time point ECG analysis
Assay type: in vivo, human
Protocol: This was a QT evaluation study (EudraCT No. 2015-000206-18; ClinicalTrials.gov: NCT02451007) performed at a subset of sites participating in a multicenter, open-label, exploratory, phase II basket clinical trial (EudraCT No: 2014-003773-42; ClinicaTrials.gov: NCT02454972) conducted in patients with selected advanced solid tumors. The schedule used in this QT evaluation study was that evaluated in the basket trial: lurbinectedin 3.2 mg/m^2 given as a 1-h i.v. infusion q3wk.
A screening ECG was collected between day -10 and day -2 before the first lurbinectedin infusion (day 1 of cycle 1) and transmitted to the central ECG laboratory to confirm the patient’s eligibility.
On day 1 of cycle 1, two baseline triplicate ECGs (three 10-s digital ECGs in close succession) were collected: one before administration of prophylactic medication or pre-dose 1, and the other after antiemetic prophylactic medication (palonosetron 0.25 mg i.v.) and before the start of the lurbinectedin infusion or pre-dose 2 (also on cycle 2).
In cycle 1 and cycle 2, the following triplicate ECGs were collected 5–10 min before their time-matched PK time points: 5 min before end of the lurbinectedin infusion (EOI), 30 min, 1, 3, 24, 72 (only on cycle 1), and 168 h after EOI.
A 12-lead automated digital ECG recorder [Mortara Instrument (Milwaukee, WI, USA) ELI-150 ECG 12-lead digital recorder] was provided by a third-party central ECG laboratory (eResearchTechnology, Inc., Philadelphia, PA, USA). Analysis and reporting of ECG data were performed by a limited number of skilled readers who were blinded to treatment time point. ECG review of a particular patient was performed by a single reader. Interval duration measurements were collected using computer-assisted caliper placements on three consecutive beats. A cardiologist then verified the interval durations and performed the morphology analysis, noting any T-U wave complex compatible with an effect on cardiac repolarization. The ECG analysis was conducted in Lead II or in Lead V5 if Lead II was not analyzable. If Lead V5 was not analyzable, then Lead V2 was used, and followed by the most appropriate lead if necessary. The mean of triplicate ECG measures at each time point for each patient was used for analyses.
Fridericia’s formula [6] is currently considered the most accurate method for correcting the effect of HR on QT interval [7], and was used as the main method for HR correction for QT (QTcF). Nevertheless, graphical inspection of QTcF and QT corrected by Bazett’s formula (QTcB) versus RR interval plots and statistical comparison of resulting squared linear regression slopes (R^2) was performed.
The primary endpoint was the change in QTc corrected by the Fridericia’s formula (ΔQTcF) between each scheduled post-baseline ECG time point and baseline at cycle 1. A patient was considered evaluable for the primary endpoint if he/she had baseline and one or more post-baseline ECG assessments.
Secondary endpoints were the ΔQTcF/lurbinectedin plasma concentration relationship, and change in other ECG parameters (i.e., HR, QRS, and PR).
The primary comparison was ΔQTcF at each ECG time point. A non-inferiority criterion of 20 ms was used to establish the absence of post-baseline QTc prolongation when compared to baseline. An analysis of variance model with mixed effects was fitted, with ΔQTc data as the dependent variable and ECG time point as the fixed effects, and patient as random effect.
Using the estimated least square means (LSM) and intra-patient standard deviation (Std) obtained from this model, a two-sided 90% confidence interval (CI) was calculated for each LSM ΔQTc. Non-inferiority was to be concluded if the upper bound (UB) of the one-sided 95% CI fell below 20 ms at each ECG time point.

[1] = Cycle 1 Day 1, 30 min after end of infusion
[2] = Cycle 1 Day 1, 1 h after end of infusion
[3] = Cycle 1 Day 1, 3 h after end of infusion
[4] = Cycle 1 Day 2, 24 h after end of infusion
[5] = Cycle 1 Day 4, 72 h after end of infusion
[6] = Cycle 1 Day 8, 168 h after end of infusion
[7] = Cycle 2 Day 1, 5 min before end of infusion
[8] = Cycle 2 Day 1, 5 min before start of infusion
[9] = Cycle 2 Day 1, 30 min after end of infusion
[10] = Cycle 2 Day 1, 1 h after end of infusion
[11] = Cycle 2 Day 8, 168 h after end of infusion
[12] = all time points other than 3 h after end of cycle 2 infusion

COc1ccc2[nH]c3c(c2c1)CCN[C@]31CS[C@@H]2c3c(OC(C)=O)c(C)c4c(c3[C@H](COC1=O)N1[C@@H]2[C@H]2c3c(cc(C)c(OC)c3O)C[C@@H]([C@@H]1O)N2C)OCO4 [lurbinectedin, Lurbinectedin]
effect on cardiac repolarization (3.2 mg/m^2 1-h i.v. q3wk): not associated with a clinically relevant effect on cardiac repolarization | values above reference limits QTcF > 480 ms and ΔQTcF > 60 ms (39 evaluable patients): No single value was above the reference limit values of concern | ΔQTcF, mean (Stdv) (Cycle 1, 0.92 h after start of infusion): 3.33 (8.46) ms | ΔQTcF, mean (Stdv) (Cycle 1, 1.5 h after start of infusion): 1.76 (8.25) ms | ΔQTcF, mean (Stdv) (Cycle 1, 2 h after start of infusion): 1.84 (10.88) ms | highest mean change from baseline in HR (± Std) (Cycle 1, 3 h after end of infusion): 16.7 (± 11.0) bpm and 16.7 bpm | ΔQTcF, mean (Stdv) (Cycle 1, 4 h after start of infusion): 1.33 (10.39) ms | ΔQTcF UB90%CI (Cycle 1 Day 1, 5 min before end of infusion): 5.51 ms | ΔQTcF LSmean (Cycle 1 Day 1, 5 min before end of infusion, 3.2 mg/m^2 1-h i.v.): 3.32 ms | ΔQTcF LSmean [1]: 1.76 ms | ΔQTcF UB90%CI [1]: 3.93 ms | ΔQTcF LSmean [2]: 1.84 ms | ΔQTcF UB90%CI [2]: 4.69 ms | ΔQTcF LSmean [3]: 1.32 ms | ΔQTcF UB90%CI [3]: 4.05 ms | ΔQTcF LSmean [4]: -8.24 ms | ΔQTcF UB90%CI [4]: -5.26 ms | ΔQTcF LSmean [5]: -12.38 ms | ΔQTcF UB90%CI [5]: -9.39 ms | ΔQTcF LSmean [6]: -5.2 ms | ΔQTcF UB90%CI [6]: -2.41 ms | ΔQTcF, mean (Stdv) (Cycle 2, 0.92 h after start of infusion): 1.54 ms and 1.54 (12.36) ms | ΔQTcF, mean (Stdv) (Cycle 2, 1.5 h after start of infusion): 1.99 (12.06) ms | ΔQTcF, mean (Stdv) (Cycle 2, 2 h after start of infusion): 1.92 (13.65) ms | ΔQTcF, mean (Stdv) (Cycle 2, 4 h after start of infusion (largest mean)): 4.69 ms and 4.69 (15.28) ms | ΔQTcF LSmean [7]: 2.25 ms | ΔQTcF UB90%CI [7]: 5.68 ms | ΔQTcF LSmean [8]: -0.46 ms | ΔQTcF UB90%CI [8]: 2.35 ms | ΔQTcF LSmean [9]: 2.32 ms | ΔQTcF UB90%CI [9]: 5.66 ms | ΔQTcF LSmean [10]: 2.73 ms | ΔQTcF UB90%CI [10]: 6.54 ms | ΔQTcF UB90%CI (Cycle 2 Day 1, 3 h after end of infusion (largest UB)): 9.6 ms and 9.60 ms | ΔQTcF LSmean (Cycle 2 Day 1, 3 h after end of infusion (maximum)): 5.39 ms | ΔQTcF LSmean [11]: -4.22 ms | ΔQTcF UB90%CI [11]: -1.08 ms | variation between lowest and largest mean change from baseline of PR interval (all time points and cycles): 7.8 ms | variation between lowest and largest mean change from baseline of QRS duration (all time points and cycles): 2.5 ms | LSM ΔQTcF at other time points [12]: ≤ 3.3 ms | UB of the 90% CI of ΔQTcF at other time points [12]: < 6.6 ms | Umax (time when the largest mean ΔQTcF is reached) (cycle 1): 0.92 h | patients with ΔHR > 25% (cycle 1): 44% | difference between Umax and Tmax (cycle 2): 3.08 h | patients with ΔHR > 25% (cycle 2): 49% | highest mean change from baseline in HR (± Std) (cycle 2, 3 h after end of infusion): 17.5 (± 11.7) bpm and 17.5 bpm | effects on atrioventricular conduction or depolarization (mean changes in PR and QRS intervals) (in vivo): No significant effects
